Earlier results in patent publication US8592371B2, “Aminotetrahydropyrans as dipeptidyl peptidase-IV inhibitors for the treatment or prevention of diabetes” (Merck Sharp & Dohme Corp, priority 2008, dated 2013).

Experiments:
[1] = tested on: hematopoiesis; conditions: mouse, cyclophosphamide-induced neutropenia; cited from earlier work
[2] = target: DPP-4 (Homo sapiens (Human), UniProt P27487); conditions: cited from earlier work
[3] = tested on: cardiac allograft; conditions: rats; from day 7 to day 14; cited from earlier work

Chain of DPP-4 (P27487 39-766, species assumed): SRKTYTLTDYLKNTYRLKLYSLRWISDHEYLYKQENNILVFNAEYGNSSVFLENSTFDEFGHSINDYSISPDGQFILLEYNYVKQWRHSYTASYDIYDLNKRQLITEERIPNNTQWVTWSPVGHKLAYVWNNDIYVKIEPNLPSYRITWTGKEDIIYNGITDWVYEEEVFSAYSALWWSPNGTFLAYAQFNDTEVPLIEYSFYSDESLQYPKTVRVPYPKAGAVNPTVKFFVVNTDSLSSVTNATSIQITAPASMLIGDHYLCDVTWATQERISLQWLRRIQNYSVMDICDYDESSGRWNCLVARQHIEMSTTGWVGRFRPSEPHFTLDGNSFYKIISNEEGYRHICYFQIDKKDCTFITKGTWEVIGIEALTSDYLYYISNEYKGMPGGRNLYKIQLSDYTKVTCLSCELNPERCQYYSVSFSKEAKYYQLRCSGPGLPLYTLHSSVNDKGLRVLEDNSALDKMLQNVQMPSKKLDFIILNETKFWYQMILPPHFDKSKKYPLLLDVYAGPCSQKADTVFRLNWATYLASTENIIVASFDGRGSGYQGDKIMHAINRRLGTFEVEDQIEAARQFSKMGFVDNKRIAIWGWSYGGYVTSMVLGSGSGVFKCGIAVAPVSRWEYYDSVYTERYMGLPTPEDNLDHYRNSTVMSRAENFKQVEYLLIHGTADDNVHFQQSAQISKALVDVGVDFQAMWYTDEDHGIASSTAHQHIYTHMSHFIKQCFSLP

For `CC(C)[C@H](N)C(=O)N1CCC[C@H]1B(O)O` [Val-Boro-Pro], the hematopoiesis [1] is given as “stimulated hematopoiesis”.
In the case of diprotin A, the “degradation of GRF in plasma to GRF[3-44]” value [2] is given as “prevented”.
In the case of `CC(C)N1CCC(c2ccccc2)(c2ccccc2)CC1` [Prodipine, Pro-Pro-diphenyl-phosphonate], the cardiac allograft survival [3] is listed as “double”.
